Assays:
[1] = target: T1, nociceptin receptor ORL1 (Homo sapiens, UniProt P41146); test: Nociceptin receptor binding inhibition assay ([125I]Tyr14-Nociceptin, CHO/ORL1 membrane fractions, SPA); set-up: expressed in transfected cells; membrane fractions; details: CHO/ORL1 membrane fraction, 50 pM [125I]Tyr14-Nociceptin, 37° C., 60 minutes
Experimental: Nociceptin Receptor Binding Inhibition Assay
A cDNA that codes for a human nociceptin receptor gene was cloned into an expression vector pCR3 (by Invitrogen) to prepare pCR3/ORL1. Next, pCR3/ORL1 was transfected in CHO cells using a transfectam (by Nippongene) to obtain a stable expression strain (CHO/ORL1 cells) having resistance against 1 mg/ml G418. Membrane fractions were prepared from this stable expression strain to carry out a receptor binding assay. 11 μg of the membrane fraction, 50 pM [^125I]Tyr^14-Nociceptin (by Amersham Pharmacia), 1 mg of wheatgerm agglutinin SPA beads (PVT based, by Amersham Pharmacia) and each test compound were suspended in an NC buffer (50 mM Hepes, 10 mM sodium chloride, 1 mM magnesium chloride, 2.5 mM calcium chloride, 0.1% BSA, 0.025% bacitracin, pH 7.4) and incubated at 37° C. for 60 minutes, and then the radioactivity of the culture was determined. The binding activity to the nociceptin receptor was indicated by the 50% inhibition concentration (IC50 value) of [^125I]Tyr^14-Nociceptin binding by each test compound.

[2] = target: T1, nociceptin receptor ORL1; test: Antagonism against nociceptin-elicited G protein activation (GTPγ[35S] binding, CHO/ORL1 membranes); type: biochemical; set-up: expressed in transfected cells; membrane preparation; details: CHO/ORL1 membrane, 50 nM nociceptin, 200 pM GTPγ[35S], 25° C., 150 minutes
Experimental: Antagonism Against Nociceptin-Elicited G Protein Activation
CHO cells which stably expressed a nociceptin receptor ORL1 were used to investigate the action of each test compound against nociceptin-elicited G protein activation. A membrane prepared from the CHO/ORL1 cells, 50 nM nociceptin, 200 pM GTPγ[^35S] (by NEN), 1.5 mg of wheatgerm agglutinin SPA beads (by Amersham Pharmacia) and each test compound were mixed in a GDP buffer (20 mM Hepes, 100 mM sodium chloride, 10 mM magnesium chloride, 1 mM EDTA, 5 μM GDP, pH 7.4) and incubated at 25° C. for 150 minutes, and then the radioactivity was determined. The antagonism against the nociceptin-elicited G protein activation was shown by the 50% inhibition concentration (IC50 value) of the test compound against GTPγ[^35S] binding.

T1 sequence (P41146 whole entry): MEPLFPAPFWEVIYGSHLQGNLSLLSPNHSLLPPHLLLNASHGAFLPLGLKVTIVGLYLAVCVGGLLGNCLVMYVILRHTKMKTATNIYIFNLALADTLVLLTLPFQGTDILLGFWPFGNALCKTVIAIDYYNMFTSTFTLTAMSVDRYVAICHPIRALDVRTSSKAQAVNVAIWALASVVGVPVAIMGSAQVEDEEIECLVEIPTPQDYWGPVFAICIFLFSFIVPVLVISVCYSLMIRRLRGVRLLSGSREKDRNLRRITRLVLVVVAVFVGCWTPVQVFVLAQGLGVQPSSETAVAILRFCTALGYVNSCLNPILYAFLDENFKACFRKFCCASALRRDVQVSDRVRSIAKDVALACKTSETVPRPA

| SMILES | IC50 [1] [nM] | IC50 [2] [nM] |
| --- | --- | --- |
| Cc1ncc(-c2c(C)c(CN[C@H]3CC[C@@H](F)C3)nn2C(C)C)cc1F [Example 2, 3-[(1S,3R)-3-fluorocyclopentylamino]methyl-5-(5-fluoro-6-methylpyridin-3-yl)-1-isopropyl-4-methyl-1H-pyrazole] | 0.92 | 0.61 |
| Cc1c(CN[C@H]2CC[C@@H](F)C2)n[nH]c1-c1cc(F)cc(F)c1 [Example 8, 5-(3,5-Difluorophenyl)-3-[(1S,3R)-3-fluorocyclopentylamino]methyl-4-methyl-1H-pyrazole] | 7.5 | 7.5 |
| Cc1c(CN[C@H]2CC[C@@H](F)C2)nn(CCC#N)c1-c1cc(F)cc(F)c1 [Example 13, 1-(2-Cyanoethyl)-5-(3,5-difluorophenyl)-3-[(1S,3R)-3-fluorocyclopentylamino]methyl-4-methyl-1H-pyrazole] | 8.2 | 4.6 |
| COCc1c(CN[C@H]2CC[C@@H](F)C2)n[nH]c1-c1cc(F)cc(F)c1 [Example 19, 5-(3,5-Difluorophenyl)-3-[(1S,3R)-3-fluorocyclopentylamino]methyl-4-methoxymethyl-1H-pyrazole] | 0.62 | 0.47 |
| COCc1c(CN[C@H]2CC[C@@H](OC)CC2)n[nH]c1-c1cc(F)cc(F)c1 [Example 34, 5-(3,5-Difluorophenyl)-3-(cis-4-methoxycyclohexylamino)methyl-4-methoxymethyl-1H-pyrazole] | 1.1 | 0.6 |
| CCc1c(CN[C@H]2CC[C@@H](F)CC2)nc(C)n1-c1cc(F)cc(F)c1 [Example 38, 1-(3,5-Difluorophenyl)-4-(cis-4-fluorocyclohexylamino)methyl-5-ethyl-2-methyl-1H-imidazole] | 6.8 | 6 |
